Data reported in ChEMBL document CHEMBL1201861, “Genomics of Drug Sensitity in Cancer screening data, Wellcome Trust Sanger Institute”.

Columns and labels:
Ca9-22 = assay: cells; type: functional, cell-based; details: Homo sapiens;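 further: growth inhibition of Ca9-22 cells, read out with a cell viability assay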
Description: SANGER: Inhibition of human Ca9-22 cell growth in a cell viability assay.

D-336MG = assay: cells; type: functional, cell-based, Homo sapiens; details: Homo sapiens, D-336MG
Description: SANGER: Inhibition of human D-336MG cell growth in a cell viability assay.

DG-75 = assay: cells; type: functional, cell-based, Homo sapiens; details: Homo sapiens, DG-75;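 further: growth inhibition of DG-75 cells, read out with a cell viability assay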
Description: SANGER: Inhibition of human DG-75 cell growth in a cell viability assay.

EC-GI-10 = assay: cells; type: functional, cell-based, Homo sapiens; details: Homo sapiens, EC-GI-10
Description: SANGER: Inhibition of human EC-GI-10 cell growth in a cell viability assay.

EGI-1 = assay: cells; type: functional, cell-based; details: Homo sapiens;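 further: cell viability readout used to gauge growth inhibition of EGI-1 cells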
Description: SANGER: Inhibition of human EGI-1 cell growth in a cell viability assay.

G-401 = assay: cells; type: functional, cell-based; details: Homo sapiens
Description: SANGER: Inhibition of human G-401 cell growth in a cell viability assay.

G-402 = assay: cells; type: functional, cell-based; details: Homo sapiens
Description: SANGER: Inhibition of human G-402 cell growth in a cell viability assay.

GAMG = assay: cells; type: functional, cell-based; details: Homo sapiens;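 further: cell growth inhibition measured by a viability assay in the GAMG human cell line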
Description: SANGER: Inhibition of human GAMG cell growth in a cell viability assay.

GP5d = assay: cells; type: functional, cell-based; details: Homo sapiens;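 further: growth inhibition of human GP5d cells, read out with a cell viability assay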
Description: SANGER: Inhibition of human GP5d cell growth in a cell viability assay.

HCC1806 = assay: cells; type: functional, cell-based; details: Homo sapiens;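 further: growth inhibition of the cancer cell line, determined with a cell viability assay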
Description: SANGER: Inhibition of human HCC1806 cell growth in a cell viability assay.

HCC38 = assay: cells; type: functional, cell-based; details: Homo sapiens;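 further: cell viability assay on the human HCC38 cell line, with IC50 marking the concentration that inhibits cell growth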
Description: SANGER: Inhibition of human HCC38 cell growth in a cell viability assay.

HCC70 = assay: cells; type: functional, cell-based; details: Homo sapiens;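 further: cell viability assay measuring how strongly the compound suppresses proliferation of HCC70 cells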
Description: SANGER: Inhibition of human HCC70 cell growth in a cell viability assay.

HEC-1 = assay: cells; type: functional, cell-based; details: Homo sapiens;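 further: growth inhibition of the cell line, read out with a cell viability assay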
Description: SANGER: Inhibition of human HEC-1 cell growth in a cell viability assay.

HPAF-II = assay: cells; type: functional, cell-based; details: Homo sapiens;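 further: growth inhibition of HPAF-II cells, read out with a cell viability assay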
Description: SANGER: Inhibition of human HPAF-II cell growth in a cell viability assay.

HT-3 = assay: cells; type: functional, cell-based; details: Homo sapiens;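 further: growth inhibition measured with a cell viability readout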
Description: SANGER: Inhibition of human HT-3 cell growth in a cell viability assay.

HT55 = assay: cells; type: functional, cell-based; details: Homo sapiens;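 further: cell viability readout measuring growth inhibition of human HT55 cells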
Description: SANGER: Inhibition of human HT55 cell growth in a cell viability assay.

HTC-C3 = assay: cells; type: functional, cell-based; details: Homo sapiens;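 further: inhibition of cell growth, read out with a cell viability assay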
Description: SANGER: Inhibition of human HTC-C3 cell growth in a cell viability assay.

Hs-578T = assay: cells; type: functional, cell-based; details: Homo sapiens
Description: SANGER: Inhibition of human Hs-578-T cell growth in a cell viability assay.

IM-9 = assay: SANGER: Inhibition of human IM-9 cell growth in a cell viability assay.; type: functional, cell-based; details: Homo sapiens, IM-9
IMR-5 = assay: cells; type: functional, cell-based, Homo sapiens; details: Homo sapiens, IMR-5; read-out: IC50;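 further: growth inhibition of human IMR-5 cells, read out with a cell viability assay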
Description: SANGER: Inhibition of human IMR-5 cell growth in a cell viability assay.

JEG-3 = assay: cells; type: functional, cell-based; details: Homo sapiens;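 further: growth inhibition of human JEG-3 cells, read out with a cell viability assay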
Description: SANGER: Inhibition of human JEG-3 cell growth in a cell viability assay.

KYSE-70 cell line = assay: cells; type: functional, cell-based; details: Homo sapiens;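 further: cell viability assay read-out, with IC50 expressing suppression of KYSE-70 cell growth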
Description: SANGER: Inhibition of human KYSE-70 cell growth in a cell viability assay.

LC4-1 = assay: cells; type: functional, cell-based, Homo sapiens; details: Homo sapiens, LC4-1;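 further: growth inhibition of LC4-1 cells, read out with a cell viability assay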
Description: SANGER: Inhibition of human LC4-1 cell growth in a cell viability assay.

LCLC-103H cell line = assay: cells; type: functional, cell-based; details: Homo sapiens
Description: SANGER: Inhibition of human LCLC-103H cell growth in a cell viability assay.

LK-2 = assay: cells; type: functional, cell-based; details: Homo sapiens;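 further: growth inhibition of LK-2 cells, read out with a viability assay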
Description: SANGER: Inhibition of human LK-2 cell growth in a cell viability assay.

M059J = assay: cells; type: functional, cell-based; details: Homo sapiens;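 further: growth inhibition of M059J cells, read out with a cell viability assay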
Description: SANGER: Inhibition of human M059J cell growth in a cell viability assay.

MDA-MB-134-VI = assay: cells; type: functional, cell-based, Homo sapiens; details: Homo sapiens, MDA-MB-134-VI
Description: SANGER: Inhibition of human MDA-MB-134-VI cell growth in a cell viability assay.

MDA-MB-361 = assay: cells; type: functional, cell-based; details: Homo sapiens
MEL-HO = assay: cells; type: functional, cell-based; details: Homo sapiens
Description: SANGER: Inhibition of human MEL-HO cell growth in a cell viability assay.

MEL-JUSO = assay: cells; type: functional, cell-based; details: Homo sapiens;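 further: growth inhibition of human MEL-JUSO cells, read out with a cell viability assay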
Description: SANGER: Inhibition of human MEL-JUSO cell growth in a cell viability assay.

MG-63 = assay: cells; type: functional, cell-based; details: Homo sapiens;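 further: growth inhibition of human MG-63 cells, read out with a cell viability assay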
Description: SANGER: Inhibition of human MG-63 cell growth in a cell viability assay.

MKN-28 = assay: cells; type: functional, cell-based; details: Homo sapiens;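 further: cell viability assay read-out, IC50 reflects suppression of growth of human MKN-28 cells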
Description: SANGER: Inhibition of human MKN28 cell growth in a cell viability assay.

MeWo = assay: cells; type: functional, cell-based; details: Homo sapiens;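 further: growth inhibition of MeWo cells, determined by a cell viability readout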
Description: SANGER: Inhibition of human Mewo cell growth in a cell viability assay.

NCI-H1563 = assay: cells; type: functional, cell-based; details: Homo sapiens;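 further: growth inhibition of human NCI-H1563 cells, read out with a cell viability assay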
Description: SANGER: Inhibition of human NCI-H1563 cell growth in a cell viability assay.

NCI-H1993 = assay: cells; type: functional, cell-based; details: Homo sapiens;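 further: growth inhibition of the cancer cell line, assessed with a cell viability assay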
Description: SANGER: Inhibition of human NCI-H1993 cell growth in a cell viability assay.

NCI-H460 = assay: cells; type: functional, cell-based; details: Homo sapiens;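 further: cell viability assay scoring growth inhibition of human NCI-H460 cells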
Description: SANGER: Inhibition of human NCI-H460 cell growth in a cell viability assay.

NCI-H510A = assay: cells; type: functional, cell-based, Homo sapiens; details: Homo sapiens, NCI-H510A;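 further: growth inhibition of NCI-H510A cells, read out with a cell viability assay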
Description: SANGER: Inhibition of human NCI-H510A cell growth in a cell viability assay.

NCI-H522 = assay: cells; type: functional, cell-based; details: Homo sapiens;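 further: cell viability assay measuring growth inhibition of human NCI-H522 cells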
Description: SANGER: Inhibition of human NCI-H522 cell growth in a cell viability assay.

NCI-H524 = assay: cells; type: functional, cell-based, Homo sapiens; details: Homo sapiens, NCI-H524;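 further: growth inhibition of human NCI-H524 cells, read out through a cell viability assay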
Description: SANGER: Inhibition of human NCI-H524 cell growth in a cell viability assay.

NCI-H630 = assay: cells; type: functional, cell-based; details: Homo sapiens;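 further: growth inhibition of NCI-H630 cells, read out with a cell viability assay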
Description: SANGER: Inhibition of human NCI-H630 cell growth in a cell viability assay.

NCI-H727 = assay: cells; type: functional, cell-based; details: Homo sapiens;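 further: growth inhibition of human NCI-H727 cells, read out with a cell viability assay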
Description: SANGER: Inhibition of human NCI-H727 cell growth in a cell viability assay.

NUGC-3 = assay: cells; type: functional, cell-based; details: Homo sapiens;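 further: growth inhibition of human NUGC-3 cells, read out with a cell viability assay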
Description: SANGER: Inhibition of human NUGC-3 cell growth in a cell viability assay.

NY = assay: cells; type: functional, cell-based; details: Homo sapiens
Description: SANGER: Inhibition of human NY cell growth in a cell viability assay.

PANC-08-13 = assay: cells; type: functional, cell-based; details: Homo sapiens
Description: SANGER: Inhibition of human PANC-08-13 cell growth in a cell viability assay.

PC-14 = assay: cells; type: functional, cell-based; details: Homo sapiens;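 further: cell viability assay measuring inhibition of PC-14 cell growth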
Description: SANGER: Inhibition of human PC-14 cell growth in a cell viability assay.

REH = assay: cells; type: functional, cell-based, Homo sapiens; details: Homo sapiens, REH;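 further: growth inhibition of REH cells determined with a cell viability read-out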
Description: SANGER: Inhibition of human REH cell growth in a cell viability assay.

RPMI-2650 = assay: cells; type: functional, cell-based; details: Homo sapiens
Description: SANGER: Inhibition of human RPMI-2650 cell growth in a cell viability assay.

SAS = assay: cells; type: functional, cell-based; details: Homo sapiens;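 further: growth inhibition of SAS cells, read out with a cell viability assay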
Description: SANGER: Inhibition of human SAS cell growth in a cell viability assay.

SK-MEL-28 = assay: cells; type: functional, cell-based; details: Homo sapiens;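 further: growth inhibition of human SK-MEL-28 cells, read out with a cell viability assay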
Description: SANGER: Inhibition of human SK-MEL-28 cell growth in a cell viability assay.

SNU-423 = assay: cells; type: functional, cell-based; details: Homo sapiens
Description: SANGER: Inhibition of human SNU-423 cell growth in a cell viability assay.

SW-620 = assay: cells; type: functional, cell-based; details: Homo sapiens;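 further: growth inhibition of human SW-620 cells, measured by a cell viability assay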
Description: SANGER: Inhibition of human SW620 cell growth in a cell viability assay.

SW626 = assay: cells; type: functional, cell-based; details: Homo sapiens;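 further: growth inhibition of SW626 cells, measured with a cell viability assay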
Description: SANGER: Inhibition of human SW626 cell growth in a cell viability assay.

T98G = assay: cells; type: functional, cell-based; details: Homo sapiens;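 further: growth inhibition of T98G cells, read out by a cell viability assay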
Description: SANGER: Inhibition of human T98G cell growth in a cell viability assay.

TCC-SUP = assay: cells; type: functional, cell-based; details: Homo sapiens;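 further: growth inhibition of TCC-SUP cells, read out with a cell viability assay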
Description: SANGER: Inhibition of human TCCSUP cell growth in a cell viability assay.

AGS = assay: cells; type: functional, cell-based; details: Homo sapiens;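 further: growth inhibition of AGS cells, determined with a cell viability assay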
Description: SANGER: Inhibition of human AGS cell growth in a cell viability assay.

BHY = assay: cells; type: functional, cell-based; details: Homo sapiens;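 further: cell growth inhibition read out by a viability assay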
Description: SANGER: Inhibition of human BHY cell growth in a cell viability assay.

BL-41 = assay: cells; type: functional, cell-based; details: Homo sapiens;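 further: growth inhibition of human BL-41 cells, read out with a cell viability assay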
Description: SANGER: Inhibition of human BL-41 cell growth in a cell viability assay.

BT-20 = assay: cells; type: functional, cell-based; details: Homo sapiens;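 further: cell viability assay measuring suppression of growth in human BT-20 cells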
Description: SANGER: Inhibition of human BT-20 cell growth in a cell viability assay.

CAL-12T = assay: cells; type: functional, cell-based; details: Homo sapiens;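 further: growth inhibition of human CAL-12T cells, read out with a cell viability assay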
Description: SANGER: Inhibition of human CAL-12T cell growth in a cell viability assay.

VMRC-RCZ = assay: cells; type: functional, cell-based; details: Homo sapiens
Description: SANGER: Inhibition of human VMRC-RCZ cell growth in a cell viability assay.

CMK = assay: cells; type: functional, cell-based, Homo sapiens; details: Homo sapiens, CMK;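 further: growth inhibition of CMK cells, read out as cell viability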
Description: SANGER: Inhibition of human CMK cell growth in a cell viability assay.

Measured: IC50

COC(=O)[C@H](CCSC)NC(=O)c1ccc(NC[C@@H](N)CS)cc1-c1ccccc1
184 nM: MEL-JUSO
> 1020 nM: all other assays above

Cc1ccc(C(=O)Nc2ccc(CN3CCN(C)CC3)c(C(F)(F)F)c2)cc1C#Cc1cnc2cccnn12 [PONATINIB]
193 nM: NY | T98G
63.4 nM: G-402
453 nM: NCI-H522
not listed: TCC-SUP | VMRC-RCZ
> 512 nM: all other assays above
